According to patent publication US20110046147A1, “17BETA-HYDROXYSTEROID DEHYDROGENASE TYPE 1 INHIBITORS FOR THE TREATMENT OF HORMONE-RELATED DISEASES” (UNIVERSITAT DES SAARLANDES, priority 2007, published 2011):

How the values were obtained:
17β-HSD2 = molecular target: T1, 17β-HSD2 (Homo sapiens, UniProt P37059); assay: Inhibition of 17β-HSD2 (estradiol to estrone, radio-HPLC); assay type: biochemical; details: human placenta microsome fraction, 500 nM estradiol, NAD+ 1500 μM
T1 construct: from tissue; host or cells: human placenta, microsome fraction
T1 sequence (P37059 1-387): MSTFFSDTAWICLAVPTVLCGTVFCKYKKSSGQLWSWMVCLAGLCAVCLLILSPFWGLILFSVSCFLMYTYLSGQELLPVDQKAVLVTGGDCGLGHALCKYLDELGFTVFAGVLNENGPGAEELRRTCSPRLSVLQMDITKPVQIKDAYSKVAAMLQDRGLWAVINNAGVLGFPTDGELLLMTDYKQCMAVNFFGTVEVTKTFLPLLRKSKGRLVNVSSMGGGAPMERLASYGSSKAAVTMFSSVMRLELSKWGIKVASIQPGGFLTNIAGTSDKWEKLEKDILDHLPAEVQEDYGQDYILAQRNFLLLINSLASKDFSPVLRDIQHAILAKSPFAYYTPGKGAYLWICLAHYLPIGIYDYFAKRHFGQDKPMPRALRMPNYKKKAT
Description: Determination of the inhibitory activity of the potential inhibitors: Inhibition of 17β-HSD1 and 17β-HSD2: In both cases, human placenta served as the enzyme source (Lin, S.-X. et al., J. Biol. Chem., 267: 16182-16187 (1992)).
In the 17β-HSD2 test, the natural cosubstrate NAD^+ is employed at a final concentration of 1500 μM. The microsome fraction is diluted in test buffer, so that a control conversion of 20 to 30% results (about 1:350). As the substrate, estradiol in a final concentration of 500 nM is used, of which 3 nM is tritiated. 2,4,6,7-[^3H]estradiol is also purchased from Perkin-Elmer, Boston. The inhibitor is added as a solution in DMSO (control: pure DMSO without inhibitor; the final concentration of DMSO in the assay is […]). After the addition of the substrate, incubation is performed at 37° C. for 20 minutes. The reaction is quenched by the addition of HgCl2 (final concentration of HgCl2: 0.166 mM).
(§1) After the reaction, the substrate and product are extracted by partitioning with ether, separated by chromatography (HPLC) and quantified by means of radiodetection.

17β-HSD1 = molecular target: T2, 17β-HSD1 (Homo sapiens, UniProt P14061); assay: Inhibition of 17β-HSD1 (estrone to estradiol, radio-HPLC); assay type: biochemical; details: for IC50: human placenta enzyme, 500 nM estrone, NADH 500 μM; for Selectivity IC50 (17β-HSD2)/IC50 (17β-HSD1): ratio of IC50 values
T2 construct: In both cases, human placenta served as the enzyme source; from tissue; host or cells: human placenta
T2 sequence (P14061 1-328): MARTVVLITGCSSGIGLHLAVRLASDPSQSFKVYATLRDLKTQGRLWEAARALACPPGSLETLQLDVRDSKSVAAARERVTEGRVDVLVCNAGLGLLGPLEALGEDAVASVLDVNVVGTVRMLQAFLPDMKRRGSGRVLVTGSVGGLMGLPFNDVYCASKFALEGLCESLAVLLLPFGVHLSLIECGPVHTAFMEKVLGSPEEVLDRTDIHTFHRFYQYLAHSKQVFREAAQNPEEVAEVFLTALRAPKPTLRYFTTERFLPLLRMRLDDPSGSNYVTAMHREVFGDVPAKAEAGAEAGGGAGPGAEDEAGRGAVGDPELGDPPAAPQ
Description: In the 17β-HSD1 test, NADH is employed as a cosubstrate at a final concentration of 500 μM in order to avoid the product inhibition occurring with NADPH. The enzyme preparation is diluted with test buffer to such an extent that the control conversion is 10 to maximally 20% (about 1:650). As the substrate, estrone in a final concentration of 500 nM is used, of which 3 nM is tritiated. 2,4,6,7-[^3H]estrone is purchased from Perkin-Elmer, Boston. The inhibitor is added as a solution in DMSO (control: pure DMSO without inhibitor; the final concentration of DMSO in the assay is 1% in all cases).
as §1

CaCo-2 cells = assay: CaCo2 transport assay; assay type: in vitro ADME; details: 50 μM in donor compartment
Description: (§2) Performance of selected compounds in a CaCo2 assay: Caco-2 cell culture and transport experiments were performed according to Yee (Yee, S., Pharm. Res., 14(6): 763-766 (1997)), but slight modifications were introduced. The cultivation times were reduced from 21 to 10 days by increasing the sowing density from 6.3·10^4 to 1.65·10^5 cells per well. […] The initial concentration of the compounds in the donor compartment was 50 μM (in buffer with 1% ethanol or DMSO). Samples were taken from the acceptor side after 60, 120 and 180 min and from the donor side after 0 and 180 min. For glycoprotein P (P-gp) studies, bidirectional experiments were performed. The absorptive and secretory permeabilities (Papp (a-b) and Papp (b-a)) were determined. Thus, erythromycin was used as a substrate, and verapamil was used as an inhibitor of P-gp. Each experiment was performed in triplicate. The integrity of the monolayer was determined by means of TEER (transepithelial electric resistance) and the permeability for each assay was determined using Lucifer Yellow. All samples of the CaCo-2 transport experiments were analyzed by means of LC/MS/MS after dilution with buffer (1:1 with 2% acetic acid). The apparent permeability coefficient (Papp) was calculated by means of the formula given below, where dQ/dt represents the recovery rate of the mass in the acceptor compartment, A represents the surface area of the transwell membrane, and c0 represents the initial concentration in the donor compartment.

CaCo2 transport assay = assay type: in vitro ADME; details: human, Caco-2; 50 μM in donor compartment; read-out: Papp [cm/sec ± rel. SD]
Description: as §2

[1] = In vivo pharmacokinetics (rat), peroral cassette dosing; design: species or system Wistar rats; details: 10 mg/kg; for AUC(0-inf): extrapolated to ∞; for half-life: read-out: t1/2z (half life) (converted); for Tmax: read-out: tmax obs (time to reach the highest measured concentration)
Description: In vivo pharmacokinetics (rat): The compounds 29, 45, 47 and 59 and a reference compound were administered to adult male Wistar rats (n=4) perorally in a cassette dosing method (vehicle: Labrasol/water 1/1). The plasma profiles were established by means of LC-MS/MS.
• Cmax obs highest measured concentration • Cz last analytically quantifiable concentration • tmax obs time to reach the highest measured concentration • tz time to withdrawal of the last sample with analytically quantifiable concentration • t1/2z half life (determined from the slope of the declining portion of the concentration vs. time curve • AUC0-tz area below the concentration vs. time curve up to time tZ • AUC0-∞ area below the concentration vs. time curve, extrapolated to ∞

Oc1ccc(-c2cnc(-c3cccc(O)c3)o2)cc1 [Compound 8, 3-[5-(4-Hydroxyphenyl)-1,3-oxazole-2-yl]phenol]
IC50 (17β-HSD2): 1020 nM | IC50 (17β-HSD1): 570 nM | Selectivity IC50 (17β-HSD2)/IC50 (17β-HSD1) (17β-HSD1): 1.8 | Permeability (class in words) (CaCo-2 cells): medium-high | Papp at 180 min, 50 μM (CaCo2 transport assay): 7.9 ×10⁻⁶ cm/s

Oc1ccc(-c2cc(-c3cccc(O)c3)on2)cc1 [Compound 18, 3-[3-(4-Hydroxyphenyl)isoxazole-5-yl]phenol]
IC50 (17β-HSD2): 800 nM | IC50 (17β-HSD1): 560 nM | Selectivity IC50 (17β-HSD2)/IC50 (17β-HSD1) (17β-HSD1): 1.4 | Permeability (class in words) (CaCo-2 cells): medium-high | Papp at 180 min, 50 μM (CaCo2 transport assay): 7.3 ×10⁻⁶ cm/s

Oc1ccc(-c2cnc(-c3cccc(O)c3)s2)cc1 [Compound 19, 3-[5-(4-Hydroxyphenyl)-1,3-thiazole-2-yl]phenol]
IC50 (17β-HSD2): 4000 nM | IC50 (17β-HSD1): 50 nM | Selectivity IC50 (17β-HSD2)/IC50 (17β-HSD1) (17β-HSD1): 80 | Permeability (class in words) (CaCo-2 cells): medium-high | Papp at 180 min, 50 μM (CaCo2 transport assay): 7.8 ×10⁻⁶ cm/s

Oc1ccc(-c2ncc(-c3cccc(O)c3)s2)cc1 [Compound 20, 3-[2-(4-Hydroxyphenyl)-1,3-thiazole-5-yl]phenol]
IC50 (17β-HSD2): 3100 nM | IC50 (17β-HSD1): 180 nM | Selectivity IC50 (17β-HSD2)/IC50 (17β-HSD1) (17β-HSD1): 17 | Permeability (class in words) (CaCo-2 cells): high | Papp at 180 min, 50 μM (CaCo2 transport assay): 11.7 ×10⁻⁶ cm/s

Oc1ccc(-c2ccc(-c3cccc(O)c3)s2)cc1 [Compound 29, 3-[5-(4-Hydroxyphenyl)-2-thienyl]phenol]
IC50 (17β-HSD2): 1950 nM | IC50 (17β-HSD1): 60 nM | Selectivity IC50 (17β-HSD2)/IC50 (17β-HSD1) (17β-HSD1): 33 | Permeability (class in words) (CaCo-2 cells): high | Papp at 180 min, 50 μM (CaCo2 transport assay): 22 ×10⁻⁶ cm/s | tz (time of last sample with quantifiable concentration) [1]: 10.0 h | Cz (last analytically quantifiable concentration) ([1]; plasma): 6.56 ng/mL | AUC(0-t) ([1]; male, Wistar, plasma, po): 99.2 ng·h/mL | AUC(0-inf) ([1]; male, Wistar, plasma, po): 99.2 ng·h/mL | half-life ([1]; male, Wistar, plasma, po): 1.5 h | Tmax ([1]; male, Wistar, plasma, po): 8 h | Cmax ([1]; male, Wistar, po, plasma, read-out: Cmax obs (highest measured concentration)): 7.8 ng/mL

Oc1cccc(-c2nsc(-c3cccc(O)c3)n2)c1 [Compound 37]
IC50 (17β-HSD2): 600 nM | IC50 (17β-HSD1): 180 nM | Selectivity IC50 (17β-HSD2)/IC50 (17β-HSD1) (17β-HSD1): 3.3 | Permeability (class in words) (CaCo-2 cells): medium | Papp at 180 min, 50 μM (CaCo2 transport assay): 3.6 ×10⁻⁶ cm/s

Oc1ccc(-c2cccc(-c3ccc(O)cc3)c2)cc1 [Compound 41, [1,1′;3′,1″]Terphenyl-4,4″-diol]
IC50 (17β-HSD2): 2200 nM | IC50 (17β-HSD1): 1600 nM | Selectivity IC50 (17β-HSD2)/IC50 (17β-HSD1) (17β-HSD1): 1.4 | Permeability (class in words) (CaCo-2 cells): high | Papp at 180 min, 50 μM (CaCo2 transport assay): 12.6 ×10⁻⁶ cm/s

Cc1cc(-c2ccc(-c3cccc(O)c3)s2)ccc1O [Compound 45, 4-[5-(3-Hydroxyphenyl)-2-thienyl]-2-methylphenol]
IC50 (17β-HSD2): 1970 nM | IC50 (17β-HSD1): 40 nM | Selectivity IC50 (17β-HSD2)/IC50 (17β-HSD1) (17β-HSD1): 49 | t1/2z (half life) [1]: 3.8 h | tmax obs (time to reach the highest measured concentration) [1]: 4.0 h | tz (time of last sample with quantifiable concentration) [1]: 24.0 h | Cz (last analytically quantifiable concentration) ([1]; plasma): 43.4 ng/mL | AUC(0-t) ([1]; male, Wistar, plasma, po): 12000 ng·h/mL | AUC(0-inf) ([1]; male, Wistar, plasma, po): 12300 ng·h/mL

Oc1cccc(-c2ccc(-c3ccc(O)c(F)c3)s2)c1 [Compound 47, 2-Fluoro-4-[5-(3-hydroxyphenyl)-2-thienyl]phenol]
IC50 (17β-HSD2): 940 nM | IC50 (17β-HSD1): 10 nM | Selectivity IC50 (17β-HSD2)/IC50 (17β-HSD1) (17β-HSD1): 94 | t1/2z (half life) [1]: 2.7 h | tmax obs (time to reach the highest measured concentration) [1]: 8.0 h | tz (time of last sample with quantifiable concentration) [1]: 24.0 h | Cz (last analytically quantifiable concentration) ([1]; plasma): 25 ng/mL | AUC(0-t) ([1]; male, Wistar, plasma, po): 19300 ng·h/mL | AUC(0-inf) ([1]; male, Wistar, plasma, po): 19400 ng·h/mL

Cc1cc(O)cc(-c2ccc(-c3ccc(O)cc3)s2)c1 [Compound 53, 3-[5-(4-Hydroxyphenyl)-2-thienyl]-5-methylphenol]
IC50 (17β-HSD1): 450 nM | Permeability (class in words) (CaCo-2 cells): high | Papp at 180 min, 50 μM (CaCo2 transport assay): 24.2 ×10⁻⁶ cm/s

Cc1cc(-c2csc(-c3cccc(O)c3)c2)ccc1O [Compound 55, 4-[5-(3-Hydroxyphenyl)-3-thienyl]-2-methylphenol]
IC50 (17β-HSD2): 870 nM | IC50 (17β-HSD1): 100 nM | Selectivity IC50 (17β-HSD2)/IC50 (17β-HSD1) (17β-HSD1): 8.7

Cc1cc(-c2cnc(-c3cccc(O)c3)s2)ccc1O [Compound 56, 4-[2-(3-Hydroxyphenyl)-1,3-thiazole-5-yl]-2-methylphenol]
IC50 (17β-HSD2): 2020 nM | IC50 (17β-HSD1): 100 nM | Selectivity IC50 (17β-HSD2)/IC50 (17β-HSD1) (17β-HSD1): 20

Oc1cccc(-c2ccc(-c3cccc(O)c3)nc2)c1 [Compound 57, 3,3′-Pyridine-2,5-diyldiphenol]
IC50 (17β-HSD2): 3400 nM | IC50 (17β-HSD1): 100 nM | Selectivity IC50 (17β-HSD2)/IC50 (17β-HSD1) (17β-HSD1): 34

Oc1cccc(-c2cnc(-c3cccc(O)c3)cn2)c1 [Compound 58, 3,3′-Pyrazine-2,5-diyldiphenol]
IC50 (17β-HSD2): 5500 nM | IC50 (17β-HSD1): 1000 nM | Selectivity IC50 (17β-HSD2)/IC50 (17β-HSD1) (17β-HSD1): 5.5

Oc1cccc(-c2nnc(-c3cccc(O)c3)nn2)c1 [Compound 59, 3,3′-(1,2,4,5-Tetrazine-3,6-diyl)diphenol]
IC50 (17β-HSD2): 5100 nM | IC50 (17β-HSD1): 200 nM | Selectivity IC50 (17β-HSD2)/IC50 (17β-HSD1) (17β-HSD1): 26 | tz (time of last sample with quantifiable concentration) [1]: 10.0 h | Cz (last analytically quantifiable concentration) ([1]; plasma): 54 ng/mL | AUC(0-t) ([1]; male, Wistar, plasma, po): 1200 ng·h/mL | AUC(0-inf) ([1]; male, Wistar, plasma, po): 1200 ng·h/mL | half-life ([1]; male, Wistar, plasma, po): 1.2 h | Tmax ([1]; male, Wistar, plasma, po): 3 h
